Active and inactive are the calls of the source. The calls are words filed in the database; no cut-off is given here.
Experiments:
[1] = molecular target: T1, Secreted mono- and diacylglycerol lipase LIP1 (Malassezia globosa (strain ATCC MYA-4612 / CBS 7966)(Dandruff-associated fungus), UniProt A8PUY1); assay: Inhibition of Malassezia globosa CBS 7966 LIP1 using pNPC substrate
T1 sequence (A8PUY1 whole entry): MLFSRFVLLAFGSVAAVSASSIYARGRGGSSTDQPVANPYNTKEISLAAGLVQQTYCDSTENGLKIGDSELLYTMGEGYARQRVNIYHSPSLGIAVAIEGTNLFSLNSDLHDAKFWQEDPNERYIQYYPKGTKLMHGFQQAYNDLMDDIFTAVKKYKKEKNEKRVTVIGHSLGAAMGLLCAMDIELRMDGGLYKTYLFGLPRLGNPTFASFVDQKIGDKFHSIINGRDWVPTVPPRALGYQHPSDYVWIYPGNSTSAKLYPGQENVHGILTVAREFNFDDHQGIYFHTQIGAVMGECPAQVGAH

[2] = molecular target: T1, Secreted mono- and diacylglycerol lipase LIP1; assay: Inhibition of Malassezia globosa CBS 7966 LIP1 using pNPA substrate
[3] = molecular target: T2, Secreted mono- and diacylglycerol lipase LIP1 (Malassezia globosa (strain ATCC MYA-4612 / CBS 7966)(Dandruff-associated fungus)) (UniProt A8PUY1); assay: Competitive inhibition of Malassezia globosa CBS 7966 LIP1 using pNPA substrate by Lineweaver-Burk plot method
T2 sequence (whole entry): T1 sequence (A8PUY1 whole entry)

[4] = molecular target: T1, Secreted mono- and diacylglycerol lipase LIP1; assay: Inhibition of Malassezia globosa CBS 7966 LIP1 incubated for 1 hr using monoolein substrate

SMILES	IC50 [1] [µM]	IC50 [2] [µM]	inhibition [3]	IC50 [4] [µM]
O=C1c2ccccc2C(=O)N1CCSC(=S)N1CCCCCC1	63.6	–	–	–
O=C1c2ccccc2C(=O)N1CCSC(=S)N1CCOCC1	> 200	–	–	–
O=C(O)c1ccc(=S)n(CC(=O)c2ccccc2)c1	–	98.3	Active	–
O=C1c2ccccc2C(=O)N1CCSC(=S)N1CCCC1	> 200	–	–	–
O=C1c2ccccc2CN1CCSC(=S)N1CCCCCC1	24.4	20.1	Dose-dependent effect	0.19
Cc1ccc(C(=O)Oc2ccc3ccc(O)cc3c2)cc1	–	81.8	Active	–
O=C(NCCCCCCNC(=O)ON=C1CCCCC1)ON=C1CCCCC1	–	75.2	Active	–
O=C1c2ccccc2CN1CCSC(=S)N1CCCC1	22.9	–	–	–
O=C1c2ccccc2CN1CCSC(=S)N1CCOCC1	> 200	–	–	–

— ChEMBL document CHEMBL3608237, “Novel inhibitor against Malassezia globosa LIP1 (SMG1), a potential anti-dandruff target” (Bioorg Med Chem Lett, 2015)
